Measurements reported in patent US9320734B2, “Small molecule inhibitors of the pleckstrin homology domain and methods for using same” (Board of Regents, The University of Texas System, priority 2008, dated 2016).
Converted amounts (≈) assume the structure as drawn. Read-outs that look alike come from different tables or passages of the source. Values belong to the compound of their own block, whether it stands above or below them.

How the values were obtained:
[1] = system: phospho-Ser473-AKT in BxPC-3; assay: Cellular AKT inhibition, Western blot phospho-Ser473-AKT, BxPC-3 cells; assay type: cell-based, human; conditions: for inhibition at 10 µM: Homo sapiens
[2] = system: Panc-1 and MiaPaCa-2 pancreatic cancer cells; assay: Cell viability assay (Table 3); conditions: for Cell viability (IC50): viability assay, cell line not given, N/I = no inhibition at the highest concentration tested; for cytotoxicity: either cell line tested (Panc-1, MiaPaCa-2)
[3] = system: phospho-Ser473-AKT in MiaPaCa-2 cells; assay: Cellular AKT inhibition, Western blot phospho-Ser473-AKT, MiaPaCa-2 cells; conditions: read-out: pAKT inhibition (IC50)
[4] = system: phospho-Ser473-AKT in HT-29 cells; assay: Cellular AKT inhibition, Western blot phospho-Ser473-AKT, HT-29 cells; assay type: cell-based; conditions: human HT-29 colon cancer cells
Procedure: (§1) AKT inhibition leads to cellular apoptosis.
(§2) AKT activity was measured by Western blotting using anti-[…] AKT antibody. Downstream targets of AKT were detected also by Western blotting using specific anti-phospho antibodies and anti-actin was used as a loading control.

[5] = system: phospho-Ser473 AKT in NIH3T3 cells; assay: Cellular AKT inhibition, phospho-Ser473 AKT, NIH3T3 cells; assay type: cell-based; conditions: mouse NIH3T3, phospho-Ser473 AKT
Procedure: as §2

[6] = Solubility; assay type: physicochemical
[7] = system: HT-29 cells; assay: Cell survival / cytotoxicity, MTT assay, HT-29 cells; assay type: cell-based, human
[8] = system: phospho-Ser473-AKT in Panc-1 cells; assay: Cellular AKT inhibition, Western blot phospho-Ser473-AKT, Panc-1 cells
[9] = system: MiaPaca-2 pancreatic cell line; assay: Apoptosis, morphological assay, MiaPaCa-2 cells; assay type: cell-based, human; conditions: MiaPaca-2, morphological assay
From the text: as §1

[10] = system: Panc-1 pancreatic cell line; assay: Apoptosis, morphological assay, Panc-1 cells; assay type: cell-based, human; conditions: Panc-1, morphological assay
From the text: as §1

[11] = system: HT-29 cells; assay: Metabolic stability under cell culture conditions (incubation with HT-29 cells); assay type: in vitro ADME, human; conditions: incubating with HT-29 cells at maximum DMEM concentration at 37° C.
From the text: Compound 6 was too insoluble to obtain data.

[12] = BxPC-3, Western blots phospho-Ser473-AKT, 10 μM, NI = not inhibitory, read-out: % pAKT Inhibition, At 10 μM
[13] = Western blotting, phospho-Ser473-AKT, MiaPaCa-2 cells, N/I = no inhibition at the highest concentration tested
[14] = BXPC-3, read-out: % pAKT Inhibition, At 10 μM
[15] = MTT assay, read-out: Cell survival (IC50)

SMILES: CCCCCCCCCCCCc1ccc(S(=O)(=O)Nc2nnc(C)s2)cc1 [Compound 108, 4-Dodecyl-N-(5-methyl-1,3,4-thiadiazol-2-yl)benzenesulfonamide]
inhibition at 10 µM [1, 12]: 64%

SMILES: CCCCCCCCCC(=O)Nc1ccc(S(=O)(=O)Nc2nnc(C(=O)OCC)s2)cc1 [Compound 123E, Ethyl 5-(4-Decanamidophenylsulfonamido)-1,3,4-thiadiazole-2-carboxylate]
inhibition at 10 µM [1, 12]: 10%

Cell viability (IC50) [2]: N/I | IC50 [3, 13]: 50 µM
SMILES: O=C(Nc1ccccc1)c1ccccc1NC(=O)c1ccccc1C(=O)O [Compound 439]

Cell viability (IC50) [2]: N/I | IC50 [3, 13]: 50 µM
SMILES: COc1cc(NS(=O)(=O)c2ccc(Nc3ccco3)cc2)nc(OC)n1 [Compound 444]

SMILES: Cc1nnc(NS(=O)(=O)c2ccc(N)cc2)s1 [Compound 105, 4-Amino-N-(5-methyl-1,3,4-thiadiazol-2-yl)benzenesulfonamide]
inhibition at 10 µM [1, 14]: 11%

SMILES: Nc1ccc(S(=O)(=O)Nc2nnc(S(N)(=O)=O)s2)cc1 [Compound 131, 5-(4-Aminophenylsulfonamido)-1,3,4-thiadiazole-2-sulfonamide]
inhibition at 10 µM [1, 14]: 18%

SMILES: Nc1ccc(S(=O)(=O)Nc2nnc(CC(=O)O)s2)cc1 [Compound 117, 2-(5-(4-Aminophenylsulfonamido)-1,3,4-thiadiazol-2-yl)acetic Acid]
inhibition at 10 µM [1, 12]: 23%

SMILES: CC1=NN(C(=O)c2ccc(Cl)cc2)C(O)C1/N=N/c1ccc(S(=O)(=O)Nc2ncccn2)cc1 (stereo not drawn) [Compound 335]
IC50 [4]: 5 µM | IC50 [5]: 3 µM | Solubility [6]: <0.1 µM

SMILES: CC(=O)Nc1ccc(S(=O)(=O)Nc2nnc(C(C)(C)C)s2)cc1 [Compound 114, N-(4-(N-(5-tert-Butyl-1,3,4-thiadiazol-2-yl)sulfamoyl)phenyl)acetamide]
inhibition at 10 µM [1, 12]: 20%

SMILES: CC(=O)Nc1ccc(S(=O)(=O)Nc2nnc(CC(=O)O)s2)cc1 [Compound 118, 2-(5-(4-Acetamidophenylsulfonamido)-1,3,4-thiadiazol-2-yl)acetic Acid]
inhibition at 10 µM [1, 12]: 19%

SMILES: CCCCCCCCCCCCc1ccc(S(=O)(=O)Nc2nnc(CCCCCN(C)c3ccc([N+](=O)[O-])c4nonc34)s2)cc1 [Compound 137, 4-Dodecyl-N-(5-(5-(methyl(7-nitrobenzo[c][1,2,5]oxadiazol-4-yl)amino)pentyl)-1,3,4-thiadiazol-2-yl)benzenesulfonamide]
AKT phosphorylation ([1]; BxPC-3 cells, compared with 104): inhibited AKT phosphorylation in a fashion similar to 104

SMILES: NS(=O)(=O)c1nnc(NS(=O)(=O)c2cccc3cccnc23)s1 [Compound 345]
IC50 [7, 15]: > 100 µM

SMILES: CCCCCCCCCC(=O)Nc1ccc(S(=O)(=O)Nc2nnc(CC)s2)cc1 [Compound 111, N-(4-(N-(5-Ethyl-1,3,4-thiadiazol-2-yl)sulfamoyl)phenyl)decanamide]
inhibition at 10 µM [1, 12]: 22%

Cell viability (IC50) [2]: N/I | IC50 [3, 13]: 50 µM
SMILES: Nc1ccc(S(=O)(=O)Nc2ccc(S(=O)(=O)Nc3nnc(S(N)(=O)=O)s3)cc2)cc1 [Compound 456]

SMILES: CCCCCCCCCC(=O)Nc1ccc(S(=O)(=O)Nc2nncs2)cc1 [Compound 101, N-(4-(N-1,3,4-Thiadiazol-2-ylsulfamoyl)phenyl)decanamide]
IC50 ([8]; Homo sapiens, PANC-1, read-out: pAKT inhibition (IC50)): 10 µM

SMILES: CCCCCCCCCC(=O)Nc1ccc(S(=O)(=O)Nc2nnc(CC(=O)O)s2)cc1 [Compound 119, 2-(5-(4-Decanamidophenylsulfonamido)-1,3,4-thiadiazol-2-yl)acetic Acid]
inhibition at 10 µM [1, 12]: 42%

SMILES: CCCCCCCCCCCCc1ccc(S(=O)(=O)Nc2nnc(C(C)(C)C)s2)cc1 [Compound 116, N-(5-tert-Butyl-1,3,4-thiadiazol-2-yl)-4-dodecylbenzenesulfonamide]
inhibition at 10 µM [1, 12]: 36%

Cell viability (IC50) [2]: N/I | IC50 [3, 13]: 25 µM
SMILES: CCOc1ccccc1C(=O)Nc1ccccc1C(=O)O [Compound 441]

SMILES: CC(C)(C)c1nnc(NS(=O)(=O)c2ccc(N)cc2)s1 [Compound 113, 4-Amino-N-(5-tert-butyl-1,3,4-thiadiazol-2-yl)benzenesulfonamide]
inhibition at 10 µM [1, 12]: 13%

SMILES: CCCCCCCCCCCCCCc1ccc(S(=O)(=O)Nc2nncs2)cc1 [Compound 156, 4-Tetradecyl-N-(1,3,4-thiadiazol-2-yl)benzenesulfonamide]
inhibition at 10 µM [1, 12]: 70%

SMILES: CCOC(=O)Cc1nnc(NS(=O)(=O)c2ccc(NC(C)=O)cc2)s1 [Compound 118E, Ethyl 2-(5-(4-Acetamidophenylsulfonamido)-1,3,4-thiadiazol-2-yl)acetate]
inhibition at 10 µM [1, 12]: 55%

Cell viability (IC50) [2]: N/I
SMILES: Cc1nnc(NS(=O)(=O)c2ccc(NS(=O)(=O)c3ccc4ccccc4c3)cc2)s1 [Compound 455]
cytotoxicity [2]: did not exhibit cytotoxicity

SMILES: CC1=NN(C(=O)c2ccc(Cl)cc2)C(=O)C1/N=N/c1ccc(S(=O)(=O)Nc2nnc(C)s2)cc1 (stereo not drawn) [Compound 389]
IC50 [7, 15]: > 100 µM

Cell viability (IC50) [2]: N/I
SMILES: Nc1ccc(S(=O)(=O)Nc2nncs2)cc1 [Compound 100, 4-Amino-N-(1,3,4-thiadiazol-2-yl)benzenesulfonamide]
cytotoxicity [2]: did not exhibit cytotoxicity

SMILES: Nc1ccc(S(=O)(=O)Nc2nnc(CO)s2)cc1 [Compound 125, 4-Amino-N-(5-(hydroxymethyl)-1,3,4-thiadiazol-2-yl)benzenesulfonamide]
inhibition at 10 µM [1, 12]: 10%

SMILES: COc1cc(NS(=O)(=O)c2ccc(NS(=O)(=O)c3c(C)noc3C)cc2)nc(OC)n1 [Compound 415]
IC50 [7, 15]: 3.1 µM

SMILES: CCc1nnc(NS(=O)(=O)c2ccc(N)cc2)s1 [Compound 109, 4-Amino-N-(5-ethyl-1,3,4-thiadiazol-2-yl)benzenesulfonamide]
inhibition at 10 µM [1, 12]: 16%

IC50 ([8]; read-out: pAKT inhibition (IC50), Panc-1, Western blots phospho-Ser473-AKT): > 50 µM | IC50 ([3]; MiaPaca-2, Western blots phospho-Ser473-AKT): > 50 µM
SMILES: COCCOCCOCC(=O)Nc1ccc(S(=O)(=O)Nc2nncs2)cc1 [Compound 103]
Apoptosis at 20 μmol/L [9]: 18.7 ± 3.1% | Apoptosis at 20 μmol/L [10]: 11.4 ± 0.5/ %

Cell viability (IC50) [2]: N/I | IC50 [3, 13]: 50 µM
SMILES: COc1cc(NS(=O)(=O)c2ccc(NC(C)=O)cc2)nc(OC)n1 [Compound 450]

SMILES: CCCCCCCCCC(=O)Nc1ccc(S(=O)(=O)Nc2nnc(C)s2)cc1 [Compound 107, N-(4-(N-(5-Methyl-1,3,4-thiadiazol-2-yl)sulfamoyl)phenyl)decanamide]
inhibition at 10 µM [1, 12]: 11%

SMILES: CCCCCCCCCCCCCCCCc1ccc(S(=O)(=O)Nc2nncs2)cc1 [Compound 157, 4-Hexadecyl-N-(1,3,4-thiadiazol-2-yl)benzenesulfonamide]
inhibition at 10 µM [1, 12]: 50%

SMILES: CCc1nnc(NS(=O)(=O)c2ccc(NC(C)=O)cc2)s1 [Compound 110, N-(4-(N-(5-Ethyl-1,3,4-thiadizol-2-yl)sulfamoyl)phenyl)acetamide]
% pAKT Inhibition, At 10 μM ([1]; BxPC-3, Western blots phospho-Ser473-AKT, 10 μM, NI = not inhibitory): 45%

SMILES: CCCCCCCCCC(=O)Nc1ccc(S(=O)(=O)Nc2nnc(C(C)(C)C)s2)cc1 [Compound 115, N-(4-(N-(5-tert-Butyl-1,3,4-thiadiazol-2-yl)sulfamoyl)phenyl)decanamide]
inhibition at 10 µM [1, 12]: 16%

SMILES: CCCCCCCCc1ccc(S(=O)(=O)Nc2nncs2)cc1 [Compound 153, 4-Octyl-N-(1,3,4-thiadiazol-2-yl)benzenesulfonamide]
inhibition at 10 µM [1, 12]: 10%

Cell viability (IC50) [2]: N/I | IC50 [3, 13]: 50 µM
SMILES: COc1cc(NS(=O)(=O)c2ccc(NC(=O)c3ccco3)cc2)nc(OC)n1 [Compound 445]

SMILES: CCCCCCCCCC(=O)Nc1ccc(S(=O)(=O)Nc2nnc(CO)s2)cc1 [Compound 127, N-(4-(N-(5-(hydroxymethyl)-1,3,4-thiadiazol-2-yl)sulfamoyl)phenyl)decanamide]
inhibition at 10 µM [1, 12]: 11%

IC50 [4]: 20 µM | Metabolic half life [11]: 1.03 h | Solubility [6]: 28.3 µM (≈ 13.1 µg/mL)
SMILES: CC1=NN(C(=O)c2ccccc2)C(=O)C1/N=N/c1ccc(S(=O)(=O)Nc2ncccn2)cc1 (stereo not drawn) [Compound 331]
IC50 ([7]; HT-29 cells, NI = not inhibitory, read-out: Cytotoxicity (IC50 μM)): 14 µM | IC50 [5]: 11 µM
